What all share (assay type): biochemical
For assay [1], the target named is T1, human cathepsin K (Homo sapiens, UniProt P43235).
T1 sequence (P43235 115-329): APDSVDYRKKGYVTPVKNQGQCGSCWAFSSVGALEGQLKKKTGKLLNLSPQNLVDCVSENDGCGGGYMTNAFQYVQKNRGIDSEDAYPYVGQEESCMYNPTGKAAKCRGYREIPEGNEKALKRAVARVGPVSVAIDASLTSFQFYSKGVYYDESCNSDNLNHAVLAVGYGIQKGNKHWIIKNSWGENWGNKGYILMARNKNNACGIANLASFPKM
The experiment in a line: Assay of cathepsin K inhibitory activity in vitro. The note with it: IC50 against human cathepsin K; substrate Z-Phe-Arg-AMC 10 μM; 25° C.; read-out: Cat-K. How it is done: Assay Method of Cathepsin K Inhibitory Activity In Vitro
Using 45000-fold diluted cathepsin K solution and 10 μM Z-Phe-Arg-AMC as substrate, the test compound and cathepsin K solution were incubated at 25° C. for 15 min in a 15 μL reaction system according to the optimized experimental condition.

Assay [2] has as its target human cathepsin B (Homo sapiens, UniProt P07858). The experiment in a line: Assay of cathepsin B inhibitory activity in vitro. To be noted: IC50 against human cathepsin B; substrate Z-Phe-Arg-AMC 10 μM; 25° C.; read-out: Cat-B. How it is done:
Assay Method of Cathepsin B Inhibitory Activity In Vitro
0.01 ng/μL was the final concentration of Cathepsin B in the enzyme reaction, and Z-Phe-Arg-AMC with the final concentration of 10 μM was added into the reaction system as substrate, in the reaction system the test compound and enzyme had been incubated at 25° C. for 15 min.

Assay [3] has as its target human cathepsin L (Homo sapiens, UniProt P07711). The experiment in a line: Assay of cathepsin L inhibitory activity in vitro. The note with it: IC50 against human cathepsin L; substrate Z-Phe-Arg-AMC 10 μM; 25° C.; read-out: Cat-L. How it is done:
Assay Method of Cathepsin L Inhibitory Activity In Vitro
0.01 ng/μL was the final concentration of Cathepsin L in the enzyme reaction, and Z-Phe-Arg-AMC with the final concentration of 10 μM was added into the reaction system as substrate, in the reaction system the test compound and enzyme had been incubated at 25° C. for 15 min.

Assay [4] concerns the target human cathepsin S (Homo sapiens, UniProt P25774). The assay can be described thus: Assay of cathepsin S inhibitory activity in vitro. To be noted: IC50 against human cathepsin S; substrate Z-VVR-AMC 20 μM; 25° C.; read-out: Cat-S. How it is done:
Assay Method of Cathepsin S Inhibitory Activity In Vitro
0.25 ng/L was the final concentration of Cathepsin S in the enzyme reaction, and Z-VVR-AMC with the final concentration of 20 μM was added into the reaction system as substrate, in the reaction system the test compound and enzyme had been incubated at 25° C. for 15 min.

Sequence of human cathepsin L (P07711 114-333): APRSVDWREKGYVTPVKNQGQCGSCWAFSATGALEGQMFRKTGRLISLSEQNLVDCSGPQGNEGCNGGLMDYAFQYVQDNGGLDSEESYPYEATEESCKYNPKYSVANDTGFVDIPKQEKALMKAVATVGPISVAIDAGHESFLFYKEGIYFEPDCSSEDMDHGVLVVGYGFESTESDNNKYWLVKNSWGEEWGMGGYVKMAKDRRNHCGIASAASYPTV
Sequence of human cathepsin S (P25774 115-331): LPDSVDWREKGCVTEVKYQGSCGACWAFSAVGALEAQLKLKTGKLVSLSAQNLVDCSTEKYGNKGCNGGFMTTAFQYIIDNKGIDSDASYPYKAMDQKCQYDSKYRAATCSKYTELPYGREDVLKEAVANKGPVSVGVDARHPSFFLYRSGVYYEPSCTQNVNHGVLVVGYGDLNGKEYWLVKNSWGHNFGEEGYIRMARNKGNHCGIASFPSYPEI

With `N#CC1(NC(=O)C2(NC(=O)c3cc4ccc(-c5ccc(C6(O)CCS(=O)(=O)CC6)cc5)cc4o3)CCCCC2)CC1` [Example 76], the IC50 in assay [1] is 0.55 nM; in assay [2], 120 nM; in assay [3], above 10000 nM; in assay [4] it was 340 nM.

With `CC1(COc2ccc(-c3ccc4cc(C(=O)NC5(C(=O)NC6(C#N)CC6)CCC(F)(F)CC5)oc4c3)cc2)COC1` [Example 93], the IC50 in assay [1] is 2.96 nM; in assay [2] it was 4300 nM; in assay [3] it was above 10000 nM; in assay [4] it was above 10000 nM.

In the case of `COc1cc(-c2ccc3cc(C(=O)NC4(C(=O)NC5(C#N)CC5)CCC(F)(F)CC4)oc3c2)ccc1OC(F)F` [Example 94], the IC50 in assay [1] is 2.4 nM; in assay [2] it was 4000 nM; in assay [3], above 10000 nM; in assay [4], 6500 nM.

Consider `N#CC1(NC(=O)C2(NC(=O)c3cc4ccc(-c5ccc(-n6cn[nH]c6=O)cc5)cc4o3)CCC(F)(F)CC2)CC1` [Example 85], for which the IC50 was 1.26 nM in assay [1], 2200 nM in assay [2], above 10000 nM in assay [3] and 1500 nM in assay [4].

On to `CS(=O)(=O)c1ccc(-c2ccc3cc(C(=O)NC4(C(=O)NC5(C#N)CC5)CCC(F)(F)CC4)oc3c2)cc1` [Example 2, N-(1-((1-cyanocyclopropyl)carbamoyl)-4,4-difluorocyclohexyl)-6-(4-(methylsulfonyl)phenyl)benzofuran-2-carboxamide], for which the IC50 is 1.37 nM in assay [1], 880 nM in assay [2], above 10000 nM in assay [3] and 4000 nM in assay [4].

Turning to `N#CC1(NC(=O)C2(NC(=O)c3cc4ccc(-c5ccc(C6(F)CCS(=O)(=O)CC6)cc5)cc4o3)CCCCC2)CC1` [Example 83], the IC50 was 2.2 nM in assay [1], 1600 nM in assay [2], above 10000 nM in assay [3] and above 10000 nM in assay [4].

As to `N#CC1(NC(=O)C2(NC(=O)c3cc4ccc(-c5ccc(-n6cncn6)cc5)cc4o3)CCCCCC2)CC1` [Example 61], the IC50 in assay [1] is 1.26 nM; in assay [2], 423 nM; in assay [3], above 10000 nM; in assay [4] it was above 10000 nM.

Take `CS(=O)(=O)COc1ccc(-c2ccc3cc(C(=O)NC4(C(=O)NC5(C#N)CC5)CCC(F)(F)CC4)oc3c2)cc1` [Example 98]: the IC50 in assay [1] was 1.02 nM.

Turning to `N#CC1(NC(=O)C2(NC(=O)c3cc4ccc(-c5csc(-n6cncn6)n5)cc4o3)CCC(F)(F)CC2)CC1` [Example 57, 6-(2-(1H-1,2,4-triazol-1-yl)thiazol-4-yl)-N-(1-((1-cyanocyclopropyl)carbamoyl)-4,4-difluorocyclohexyl)benzofuran-2-carboxamide], the IC50 in assay [1] is 1.3 nM; in assay [2], above 10000 nM; in assay [3] it was above 10000 nM; in assay [4], 416 nM.

For `N#CC1(NC(=O)C2(NC(=O)c3cc4ccc(-c5ccc(C6(O)COC6)cc5)cc4o3)CCCCC2)CC1` [Example 72], the IC50 is 0.5 nM in assay [1], 727 nM in assay [2], above 10000 nM in assay [3] and above 10000 nM in assay [4].

With `COc1ccc(-c2ccc3cc(C(=O)NC4(C(=O)NC5(C#N)CC5)CCC(F)(F)CC4)oc3c2)cc1OC` [Example 4, N-(1-((1-cyanocyclopropyl)carbamoyl)-4,4-difluorocyclohexyl)-6-(3,4-dimethoxyphenyl)benzofuran-2-carboxamide], the IC50 in assay [1] was 2.1 nM; in assay [2] it was 2500 nM; in assay [3], above 10000 nM; in assay [4], above 10000 nM.

On to `N#CC1(NC(=O)C2(NC(=O)c3cc4ccc(-c5ccc(C(=O)N6CCOCC6)cc5)cc4o3)CCC(F)(F)CC2)CC1` [Example 92], for which the IC50 in assay [1] was 1.4 nM; in assay [2], 6400 nM; in assay [3] it was above 10000 nM; in assay [4], 2300 nM.

With `N#CC1(NC(=O)C2(NC(=O)c3cc4ccc(-c5ccc(C6CCS(=O)(=O)CC6)cc5)cc4o3)CCC(F)(F)CC2)CC1` [Example 86], the IC50 is 1.1 nM in assay [1], 6800 nM in assay [2], above 10000 nM in assay [3] and 4700 nM in assay [4].

For the molecule `N#CC1(NC(=O)C2(NC(=O)c3cc4ccc(-c5ccc(N6CCNC6=O)cc5)cc4o3)CCC(F)(F)CC2)CC1` [Example 88], the IC50 in assay [1] is 5.4 nM; in assay [2] it was 800 nM; in assay [3] it was above 10000 nM; in assay [4], 2900 nM.

As to `CS(=O)(=O)c1ccc(-c2ccc3cc(C(=O)NC4(C(=O)NC5(C#N)CC5)CCCCC4)oc3n2)cc1` [Example 82], the IC50 in assay [1] is 2.7 nM; in assay [2], 200 nM; in assay [3], above 10000 nM; in assay [4], 1500 nM.

Take `N#CC1(NC(=O)C2(NC(=O)c3cc4ccc(-c5ccc(C(O)C(F)F)cc5)cc4o3)CCCCC2)CC1` (centres unmarked) [Example 7, N-(1-((1-cyanocyclopropyl)carbamoyl)cyclohexyl)-6-(4-(2,2-difluoro-1-hydroxyethyl)phenyl)benzofuran-2-carboxamide]: the IC50 in assay [1] was 0.62 nM; in assay [2] it was 103 nM; in assay [3], above 10000 nM; in assay [4], 2100 nM.

As to `N#CC1(NC(=O)C2(NC(=O)c3cc4ccc(-c5ccc(C6(O)CCC6)cc5)cc4o3)CCCCC2)CC1` [Example 9, N-(1-((1-cyanocyclopropyl)carbamoyl)cyclohexyl)-6-(4-(1-hydroxycyclobutyl)phenyl)benzofuran-2-carboxamide], the IC50 was 2.7 nM in assay [1], 410 nM in assay [2], above 10000 nM in assay [3] and 3500 nM in assay [4].

With `N#CC1(NC(=O)C2(NC(=O)c3cc4ccc(-c5ccc(C(O)C6(O)CC6)cc5)cc4o3)CCC(F)(F)CC2)CC1` (centres unmarked) [Example 15, N-(1-((1-cyanocyclopropyl)carbamoyl)-4,4-difluorocyclohexyl)-6-(4-(hydroxy(1-hydroxycyclopropyl)methyl)phenyl)benzofuran-2-carboxamide], the IC50 in assay [1] is 3.1 nM; in assay [2], 750 nM; in assay [3], above 10000 nM; in assay [4], 620 nM.

Take `N#CC1(NC(=O)C2(NC(=O)c3cc4ccc(-c5ccc(C6(O)COC6)cc5)cc4o3)CCCCCC2)CC1` [Example 79]: the IC50 in assay [1] amounted to 0.72 nM; in assay [2], 330 nM; in assay [3], 7100 nM; in assay [4], 740 nM.

Turning to `N#CC1(NC(=O)C2(NC(=O)c3cc4ccc(-c5csc(N6CCOC6=O)n5)cc4o3)CCCCC2)CC1` [Example 68], the IC50 in assay [1] was 0.79 nM; in assay [2], 360 nM; in assay [3], above 10000 nM; in assay [4], 4080 nM.

`CS(=O)(=O)c1ccc(-c2ccc3cc(C(=O)NC4(C(=O)NC5(C#N)CC5)CCCCC4)oc3c2)c(F)c1` [Example 5, N-(1-((1-cyanocyclopropyl)carbamoyl)cyclohexyl)-6-(2-fluoro-4-(methylsulfonyl)phenyl)benzofuran-2-carboxamide]: the IC50 in assay [1] was 1.1 nM; in assay [2], 78 nM; in assay [3], above 10000 nM; in assay [4] it was 1600 nM.

Take `N#CC1(NC(=O)C2(NC(=O)c3cc4ccc(-c5ccc(C6(F)COC6)cc5)cc4o3)CCCCC2)CC1` [Example 73]: the IC50 in assay [1] was 3.04 nM; in assay [2], 1120 nM; in assay [3], above 10000 nM; in assay [4] it was above 10000 nM.

As for `N#CC1(NC(=O)C2(NC(=O)c3cc4ccc(-c5ccc(C6(N)COC6)cc5)cc4o3)CCCCC2)CC1` [Example 1, 6-(4-(3-aminooxetan-3-yl)phenyl)-N-(1-((1-cyanocyclopropyl)carbamoyl)cyclohexyl)benzofuran-2-carboxamide], the IC50 in assay [1] was found to be 0.19 nM; in assay [2], 22 nM; in assay [3] it was 1500 nM; in assay [4], 1800 nM.

On to `COc1cc(-c2ccc3cc(C(=O)NC4(C(=O)NC5(C#N)CC5)CCC(F)(F)CC4)oc3c2)ccc1CS(C)(=O)=O` [Example 100], for which, in assay [1], the IC50 stood at 0.56 nM.

For the molecule `N#CC1(NC(=O)C2(NC(=O)c3cc4ccc(-c5ccc(S(=O)(=O)N6CCOCC6)cc5)cc4o3)CCC(F)(F)CC2)CC1` [Example 47, N-(1-((1-cyanocyclopropyl)carbamoyl)-4,4-difluorocyclohexyl)-6-(4-(morpholinosulfonyl)phenyl)benzofuran-2-carboxamide], the IC50 in assay [1] is 1.01 nM; in assay [2] it was above 10000 nM; in assay [3], above 10000 nM; in assay [4] it was above 10000 nM.

Regarding `COc1cc(-c2ccc3cc(C(=O)NC4(C(=O)NC5(C#N)CC5)CCC(F)(F)CC4)oc3c2)ccc1OCS(C)(=O)=O` [Example 101], the IC50 in assay [1] worked out at 0.88 nM.
